From US8946426B2, “Substituted bicyclic heterocyclic compounds as gamma secretase modulators” (Janssen Pharmaceuticals, Inc., priority 2009, dated 2015)

Experiments:
[1] = tested on: Aβtotal; assay: Method 1: Aβtotal sandwich ELISA in supernatant of SKNBE2 cells carrying APP 695-wild type (Tables 7a, 7b); format: cell-based
Method: (§1) Screening was carried out using SKNBE2 cells carrying the APP 695-wild type, grown in Dulbecco's Modified Eagle's Medium/Nutrient mixture F-12 (DMEM/NUT-mix F-12) (HAM) provided by Gibco (cat no. 31330-38) containing 5% Serum/Fe supplemented with 1% non-essential amino acids. Cells were grown to near confluency.
(§2) The screening was performed using the assay as described in Citron et al (1997) Nature Medicine 3: 67. Briefly, cells were plated in a 96-well plate at about 10^5 cells/ml one day prior to addition of compounds. Compounds were added to the cells in Ultraculture (Lonza, BE12-725F) supplemented with 1% glutamine (Invitrogen, 25030-024) for 18 Hours. The media were assayed by two sandwich ELISAs, for Aβ42 and Aβtotal. Toxicity of the compounds was assayed by WST-1 cell proliferation reagent (Roche, 1 644 807) according to the manufacturer's protocol.
To quantify the amount of Aβtotal in the cell supernatant, samples and standards were added to a 6E10-coated plate. The plate was allowed to incubate overnight at 4° C. in order to allow formation of the antibody-amyloid complex. Following this incubation and subsequent wash steps a selective anti-Aβ-antibody conjugate (biotinylated 4G8) was added and incubated for a minimum of 1 Hour in order to allow formation of the antibody-Amyloid-antibody-complex. After incubation and appropriate wash steps, a Streptavidine-Peroxidase-Conjugate was added, followed 30 minutes later by an addition of Quanta Blu fluorogenic peroxidase substrate according to the manufacturer's instructions (Pierce Corp., Rockford, Ill.).
(§3) To obtain the values reported in Table 7a, the sigmoidal dose response curves were analysed by computerised curve-fitting, with percent of inhibition plotted against compound concentration. A 4-parameter equation (model 205) in XLfit was used to determine the IC50. The top and the bottom of the curve were fixed to 100 and 0, respectively, and the hill slope was fixed to 1. The IC50 represents the concentration of a compound that is required for inhibiting a biological effect by 50% (Here, it is the concentration where Aβ peptide level is reduced by 50%).
(§4) To obtain the values reported in Table 7b, the data were calculated as percentage of the maximum amount of amyloid Beta 42 measured in the absence of the test compound. The sigmoidal dose response curves were analyzed using non-linear regression analysis with percentage of the control plotted against the log concentration of the compound. A 4-parameter equation was used to determine the IC50. The values reported in Table 7b are averaged IC50 values.

[2] = tested on: Aβ42; assay: Method 1: Aβ42 sandwich ELISA in supernatant of SKNBE2 cells carrying APP 695-wild type (Tables 7a, 7b); format: cell-based
Method: as §1, §2
To quantify the amount of Aβ42 in the cell supernatant, commercially available Enzyme-Linked-Immunosorbent-Assay (ELISA) kits were used (Innotest® β-Amyloid(1-42), Innogenetics N.V., Ghent, Belgium). The Aβ42 ELISA was performed essentially according to the manufacturer's protocol. Briefly, the standards (dilutions of synthetic Aβ1-42) were prepared in polypropylene Eppendorf with final concentrations of 8000 down to 3.9 pg/ml (½ dilution step). Samples, standards and blanks (100 μl) were added to the anti-Aβ42-coated plate supplied with the kit (the capture antibody selectively recognizes the C-terminal end of the antigen). The plate was allowed to incubate 3 H at 25° C. in order to allow formation of the antibody-amyloid complex. Following this incubation and subsequent wash steps a selective anti-Aβ-antibody conjugate (biotinylated 3D6) was added and incubated for a minimum of 1 Hour in order to allow formation of the antibody-Amyloid-antibody-complex. After incubation and appropriate wash steps, a Streptavidine-Peroxidase-Conjugate was added, followed 30 minutes later by an addition of 3,3′,5,5′-tetramethylbenzidine (TMB)/peroxide mixture, resulting in the conversion of the substrate into a coloured product. This reaction was stopped by the addition of sulfuric acid (0.9 N) and the colour intensity was measured by means of photometry with an ELISA-reader with a 450 nm filter.
as §3, §4

[3] = Table 7b, averaged IC50, non-linear regression of percentage of control vs log concentration, 4-parameter equation
[4] = Table 7a, SKNBE2 cells, compounds 18 h, XLfit 4-parameter fit of percent inhibition, top/bottom fixed to 100/0, hill slope 1
[5] = Homo sapiens, SKNBE2, Table 7b, averaged IC50, non-linear regression of percentage of control vs log concentration, 4-parameter equation
[6] = Homo sapiens, Table 7a, SKNBE2 cells, compounds 18 h, XLfit 4-parameter fit of percent inhibition, top/bottom fixed to 100/0, hill slope 1

IC50 [1, 3] [nM] | IC50 [2, 3] [nM] | SMILES | also measured
> 3000 | 1950 | Cn1nccc1-c1ccc(Nc2cccc3c2nc(-c2ccc(F)cc2)n3C)nc1 [Compound 71] | –
> 3000 | 23 | COc1cccc(-c2nc3c(Nc4ccc(-c5ocnc5C)cc4)cccn3c2C)c1 [Compound 152] | –
> 3000 | 51 | Cc1ncoc1-c1ccc(Nc2cccc3c2nc(-c2ccc(F)cc2)n3C)cc1 [Compound 124] | –
> 3000 | 28 | Cc1ncc(-c2ccc(Nc3cccc4c3nc(-c3ccc(F)cc3)n4C(C)C)cc2)o1 [Compound 19] | IC50 [1, 4]: > 3000 nM; IC50 [2, 4]: 49 nM
> 3000 | 83 | Cc1ncoc1-c1ccc(Nc2cc(C#N)cc3c2nc(-c2ccc(F)cc2)n3C)cn1 [Compound 110] | –
> 3000 | 1150 | COc1cc(Nc2cccc3c2nc(-c2ccc(F)cc2)n3C)ccc1-c1ncnn1C [Compound 75] | –
> 3000 | 110 | Cc1ncc(-c2ccc(Nc3cccc4c3nc(-c3ccc(F)cc3)n4C(C)C)cc2F)o1 [Compound 28] | –
> 30000 | 240 | COc1cc(Nc2cncc3c2nc(-c2ccc(F)cc2)n3C)ccc1-c1ocnc1C [Compound 199] | –
> 10000 | 141 | COc1cc(-c2nc3c(Nc4ccc(-c5ocnc5C)cn4)cccc3n2C)ccc1Cl [Compound 33] | IC50 [1, 4]: > 10000 nM; IC50 [2, 4]: 102 nM
> 3000 | 28 | Cc1ncc(-c2ccc(Nc3cccc4c3nc(-c3ccc(F)cc3)n4C)cn2)o1 [Compound 29] | IC50 [1, 4]: > 3000 nM; IC50 [2, 4]: 29 nM
> 10000 | 282 | Cc1ncoc1-c1ccc(Nc2cccc3c2nc(-c2cccc(Cl)c2)n3C)nc1 [Compound 32] | IC50 [1, 4]: > 10000 nM; IC50 [2, 4]: 235 nM
> 3000 | 955 | Cn1nccc1-c1ccc(Nc2cccc3c2nc(-c2ccc(F)cc2)n3C)cc1 [Compound 72] | –
> 1000 | 26 | COc1cc(Nc2cc(C#N)cc3c2nc(-c2ccc(F)cc2)n3C)ccc1-c1ocnc1C [Compound 123] | –

Second part, the compound before the results:

SMILES | IC50 [1, 3] [nM] | IC50 [2, 3] [nM] | also measured
COc1cc(Nc2nc(C3CC3)cc3c2nc(-c2ccc(F)cc2)n3C)ccc1-c1cnc(C)o1 [Compound 94] | > 3000 | 83 | –
Cc1ncoc1-c1ccc(Nc2cccc3c2nc(COc2ccccc2)n3C)cn1 [Compound 61] | > 3000 | 1070 | –
COc1cc(Nc2cccn3cc(-c4ccccc4C)nc23)ccc1-c1cnc(C)s1 [Compound 52] | > 3000 | 166 | –
Cc1ncoc1-c1ccc(Nc2cccc3c2nc(-c2cccc(Cl)c2)n3C(C)C)cn1 [Compound 112] | > 1000 | 28 | –
Cc1ccc(-c2cn3cccc(Nc4ccc(-c5ocnc5C)nc4)c3n2)c(F)c1 [Compound 45] | > 30000 | 813 | IC50 [1, 4]: > 30000 nM; IC50 [2, 4]: 848 nM
Cc1ncc(-c2ccc(Nc3cccn4cc(C5CC5)nc34)cc2)o1 [Compound 166] | > 3000 | 741 | –
COc1cccc(-c2nc3c(Nc4ccc(-c5cnc(C)o5)c(F)c4)nccc3n2C)c1 [Compound 109] | 2820 | 145 | –
COc1cc(Nc2cccn3cc(-c4ccc(F)cc4)nc23)ccc1-c1oc(C)nc1C [Compound 7] | – | – | IC50 [1, 5]: > 10000 nM; IC50 [1, 6]: > 10000 nM; IC50 [2, 5]: 302 nM; IC50 [2, 6]: 334 nM
Cc1ncc(-c2ccc(Nc3cccn4cc(-c5ccc(F)cc5C)nc34)cc2)o1 [Compound 46] | > 3000 | 110 | –
COc1cc(Nc2nc(C3CC3)cn3cc(C)nc23)ccc1-c1ocnc1C [Compound 153] | > 3000 | 1320 | –
COc1cc(Nc2cccn3cc(-c4cc(F)ccc4C)nc23)ccc1-c1cnc(C)o1 [Compound 48] | > 10000 | 132 | –
Cc1ncc(-c2ccc(Nc3cccc4c3nc(-c3ccc(F)cc3)n4C(C)C)nc2)o1 [Compound 15] | – | – | IC50 [1, 5]: > 3000 nM; IC50 [2, 5]: 100 nM
Cc1ncc(-c2ccc(Nc3cc(C(F)(F)F)cc4c3nc(C3CCOCC3)n4C)cc2)o1 [Compound 100] | 25100 | 2240 | –
Cc1ncc(-c2ccc(Nc3nccc4c3nc(-c3ccc(F)cc3F)n4C)cc2F)o1 [Compound 55] | > 10000 | 3020 | –
Cc1ncc(-c2ccc(Nc3nc(Br)cn4cc(-c5ccc(F)cc5C)nc34)cc2)o1 [Compound 60] | > 3000 | 3020 | –
COc1cc(Nc2cccn3c(C)c(C)nc23)ccc1-c1ocnc1C [Compound 144] | 13800 | 468 | –
COc1cc(Nc2cc(C(F)(F)F)nn3cc(C)nc23)ccc1-c1ocnc1C [Compound 196] | > 3000 | 676 | –
Cc1ncc(-c2ccc(Nc3cc(F)cn4cc(CC(C)C)nc34)cc2)o1 [Compound 178] | > 3000 | 85 | –
Cc1ncc(-c2ccc(Nc3cccn4cc(-c5ccc(F)cc5)nc34)cc2)o1 [Compound 42] | > 3000 | 123 | IC50 [1, 4]: > 3000 nM; IC50 [2, 4]: 96 nM
COc1cc(Nc2cc(C(F)(F)F)cn3c(C)c(C)nc23)ccc1-c1ocnc1C [Compound 142] | > 10000 | 468 | –
COc1cc(Nc2nccc3c2nc(CCC(F)(F)F)n3C)ccc1-c1cnc(C)o1 [Compound 91] | 66100 | 1440 | –
COc1cc(Nc2cc(F)cc3c2nc(N(C)CC(C)C)n3C)ccc1-c1cnc(C)o1 [Compound 108] | > 10000 | 132 | –
COCCCc1c(-c2ccccc2C(F)(F)F)nc2c(Nc3ccc(-c4cnc(C)o4)c(OC)c3)cccn12 [Compound 169] | – | – | IC50 [1, 5]: > 3000 nM; IC50 [2, 5]: 45 nM
COCCn1c(C)nc2c(Nc3ccc(-c4cnc(C)s4)c(OC)c3)cccc21 [Compound 37] | > 3000 | 380 | –
CCn1c(CC2CC2)nc2c(Nc3ccc(-c4cnc(C)o4)c(OC)c3)cccc21 [Compound 64] | > 3000 | 68 | –
COc1cccc(-c2nc3c(Nc4ccc(-c5cnc(C)o5)cc4)nc(C)cc3n2C)c1 [Compound 98] | > 3000 | 71 | –
